Entries after “also recorded” stand apart in the source; their conditions may differ.
Key:
[1] = system: ACCx6 xenograft tumor line; experiment: ACCx6 adenoid cystic carcinoma xenograft efficacy study in nude mice; assay type: in vivo; conditions: 50 mg/kg p.o. qd x28; D28; P<0.001 as compared to 5/10 mg/kg docetaxel monotherapy
Experimental: The tumors are maintained by engraftment in nude mice. A 1 mm^3 fragment is implanted subcutaneously in the right flank of each test animal The tumors are measured with calipers twice weekly, and daily as the mean volume approached 100-150 mm^3 Seven days after tumor cell implantation, on D1 (day 1) of the study, the animals are sorted into groups of ten mice, with individual tumor sizes of 100-1250 mm^3 Tumor size, in mm^3, is calculated from
where “w” is the width and “1” is the length, in mm, of the tumor. Tumor weight is estimated with the assumption that 1 mg is equivalent to 1 mm^3 of tumor volume. For the efficacy study dovitinib and its vehicle are each administered orally (p.o.), once daily for twenty eight consecutive days (qd x28). […] The dosing volume, 10 mL/kg (0.2 mL20 g mouse), is scaled to the weight of each animal as determined on the day of dosing, except on weekends when the previous BW was carried forward.
The study begins on Day 1 (D1). Efficacy is determined from tumor volume changes up to D28 (day 28). Efficacy is determined on D28.
For the purpose of statistical and graphical analyses, ΔTV, the difference in tumor volume between D1 (the start of dosing) and the endpoint day, was determined for each animal For each treatment group, the response on the endpoint day was calculated by the following relation: […]

[2] = system: ACCx5M1 xenograft tumor line; experiment: ACCx5M1 adenoid cystic carcinoma xenograft tumor growth delay study in nude mice; assay type: in vivo
Text: The data set is comprised of the first observation that exceeded the study endpoint volume and the three consecutive observations that immediately preceded the attainment of the endpoint volume. The calculated TTE is usually less than the day on which an animal is euthanized for tumor size.

[3] = system: Stage IV adenoid cystic carcinoma; experiment: Dovitinib clinical trial, adenoid cystic carcinoma patient, radiologic imaging of target lesions; assay type: in vivo, human
Experimental: A patient with Stage IV adenoid cystic carcinoma was enrolled in a dovitinib clinical trial.
The patient was originally diagnosed 20 years ago with Stage II well differentiated ACC on the right cheek mucosa. Patient was previously treated using tumor resection of right cheek mucosa and right upper jaw and treated with radiation therapy, followed by chemotherapy with 5 FU (250 mg/m^2), ciplatin (40 mg/m^2), doxorubicin (20 or 27 mg/m^2) and cyclophosphamide (400 mg/m^2).
Recurrence of ACC occurred […], and patient was again treated using surgery of right cheek and submandibular Lymph nodes. Patient was subsequently treated with radiation therapy and followed by chemotherapy (TS-1, 120 mg/day).
Patient was enrolled into the dovitinib clinical trial and was treated with dovitinb 500 mg 5 days on 2 days off.

[4] = system: primary ACC xenografts; experiment: Tumor growth inhibition in primary ACC xenograft models; assay type: in vivo, immunodeficient mice; conditions: FIGS. 6 and 7
Experimental: Once confirmed, established ACC xenograft models were developed until growth characteristic stabilized at which point viable stocks were collected and banked. According to one embodiment, the efficacy of dovitinib was evaluated in inhibiting tumor growth in certain ACC xenografts.

[5] = 500 mg 5 days on 2 days off, after 1 cycle of treatment (4 weeks), one patient

## CN1CCN(c2ccc3nc(-c4c(N)c5c(F)cccc5[nH]c4=O)[nH]c3c2)CC1 [dovitinib, 4-amino-5-fluoro-3-[6-(4-methylpiperazin-1-yl)-1H-benzimidazol-2-yl]-1H-quinolin-2-one]
[1]
  median growth inhibition (tumor volume): significant median growth inhibition
[2]; 50 mg/kg monotherapy, Logrank test, P<0.05
  survival extension: significant
[2]; 50 mg/kg p.o. qd x64 monotherapy, study endpoint D64 or endpoint tumor volume
  % TGD (tumor growth delay): 49%
[3]; [5]
  reduction of total diameter of target lesions: 26%
  reduction of tumor diameter on the right facial target lesion: 70%
[3]; after 1 cycle of treatment
  reducing ACC tumor growth in a human clinical trial: surprisingly effective in reducing ACC tumor growth
[4]
  inhibiting tumor growth in primary ACC xenografts: effective for inhibiting tumor growth; also recorded: surprisingly effective in inhibiting tumor

Source: patent US20150182525A1, “4-Amino-5-Fluoro-3-[6-(4-Methylpiperazin-1-YL)-1H-Benzimidazol-2-YL]-1H-Quinolin-2-one for use in the Treatment of Adenoid Cystic Carcinoma” (priority 2011, published 2015)
